{
  "source": "patent US10392630B2",
  "about": "“Plants having increased tolerance to herbicides” (BASF AGRO B.V., priority 2013, dated 2019)",
  "assay_in_all_cases": "biochemical",
  "key": {"[1]": {"target": "T1, Amaranthus mutant PPO (AMARE) (Amaranthus tuberculatus, UniProt Q0NZW9, F420M)", "T1 sequence (Q0NZW9 1-534 F420M)": "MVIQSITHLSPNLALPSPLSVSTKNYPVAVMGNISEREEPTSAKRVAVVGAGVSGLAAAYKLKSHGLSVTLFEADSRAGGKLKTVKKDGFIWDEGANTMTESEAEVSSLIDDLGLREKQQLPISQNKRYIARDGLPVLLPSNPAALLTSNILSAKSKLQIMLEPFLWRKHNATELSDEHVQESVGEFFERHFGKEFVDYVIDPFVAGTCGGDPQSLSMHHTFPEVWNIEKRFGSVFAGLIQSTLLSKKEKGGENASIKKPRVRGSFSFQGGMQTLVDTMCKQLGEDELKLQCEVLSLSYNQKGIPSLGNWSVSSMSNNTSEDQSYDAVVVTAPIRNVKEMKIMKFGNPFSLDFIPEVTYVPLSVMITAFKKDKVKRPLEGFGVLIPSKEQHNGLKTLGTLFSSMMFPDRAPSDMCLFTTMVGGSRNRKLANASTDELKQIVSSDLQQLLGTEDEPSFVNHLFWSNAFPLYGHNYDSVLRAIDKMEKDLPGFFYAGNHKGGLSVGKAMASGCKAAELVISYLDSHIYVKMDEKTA"}, "[2]": {"target": "T2, Amaranthus mutant PPO (AMARE) (Amaranthus tuberculatus, UniProt Q0NZW9, F420M/R128A)", "T2 sequence (Q0NZW9 1-534 R128A/F420M)": "T1 sequence (Q0NZW9 1-534 F420M) with R128A"}, "[3]": {"target": "T3, Amaranthus mutant PPO (AMARE) (Amaranthus tuberculatus, UniProt Q0NZW9, R128A)", "T3 sequence (Q0NZW9 1-534 R128A)": "T1 sequence (Q0NZW9 1-534 F420M) with R128A, M420F"}, "[4]": {"target": "T4, Amaranthus mutant PPO (AMARE) (Amaranthus tuberculatus, UniProt Q0NZW9, R128I)", "T4 sequence (Q0NZW9 1-534 R128I)": "T1 sequence (Q0NZW9 1-534 F420M) with R128I, M420F"}, "[5]": {"target": "T5, Amaranthus mutant PPO (AMARE) (Amaranthus tuberculatus, UniProt Q0NZW9, R128L)", "T5 sequence (Q0NZW9 1-534 R128L)": "T1 sequence (Q0NZW9 1-534 F420M) with R128L, M420F"}},
  "note": "Positions count from the first letter of the chain named.",
  "data": [
    {"compound": "CC(C)N(C)S(=O)(=O)NC(=O)c1cc(-n2c(=O)cc(C(F)(F)F)n(C)c2=O)c(F)cc1Cl", "note": "[saflufenacil]", "values": [
      {"measurement": "IC50", "setting": "[1]", "value": 677, "unit": "nM"},
      {"measurement": "IC50", "setting": "[2]", "value": "> 10", "unit": "µM"},
      {"measurement": "IC50", "setting": "[3]", "value": 129, "unit": "nM"},
      {"measurement": "IC50", "setting": "[4]", "value": 365, "unit": "nM"},
      {"measurement": "IC50", "setting": "[5]", "value": 222, "unit": "nM"}
    ]}
  ]
}
